Where two headings read alike, the source gives them in different places.
Key:
IL-6 = settings: animal models including diabetes, asthma, pancreatitis and hepatitis; cited from earlier work
[1] = tested on: activated memory T cell line; settings: 1-5 μmol/l, cited from earlier work
human neutrophils = settings: cited from earlier work
microglial cells = settings: 1-16 μmol/l; cited from earlier work
IL-6 secretion = settings: cellular models, majority of cases; cited from earlier work
[2] = tested on: ischemia-reperfusion-induced kidney injury; settings: mice, 10 mg/kg after induced kidney injury; cited from earlier work
human mononuclear cells = settings: nanomolar or micromolar concentrations; cited from earlier work
NK, NKT, T and B cells = settings: healthy rats, cited from earlier work
[3] = mice, 120 mg/kg single dose; cited from earlier work
CD83 = settings: cited from earlier work
[4] = tested on: LPS-induced acute lung injury; settings: cited from earlier work
[5] = n-octanol/water; cited from earlier work
[6] = tested on: chemically induced acute hepatitis; settings: mice, 25 mg/kg; cited from earlier work
[7] = systemic exposure after i.p. and oral application of CBD in mice (Deiana et al.); type: in vivo; settings: 20 mg/kg, assuming dose-proportional plasma concentrations
Method: A comparative investigation for systemic exposure after i.p. and oral application of CBD in mice and rats has shown that 120 mg/kg as a single dose leads to a maximum plasma concentration of 14,000 ng/ml in mice (S. Deiana et al. (2012). Plasma and brain pharmacokinetic profile of cannabidiol (CBD), cannabidivarine (CBDV), Delta(9)-tetrahydrocannabivarin (THCV) and cannabigerol (CBG) in rats and mice following oral and intraperitoneal administration and CBD action on obsessive-compulsive behaviour. Psychopharmacology (Berl) 219(3): 859-73).

[8] = prophylactic, i.p. 0.3-80 mg/kg 60 min before LPS
[9] = therapeutic, 6 h after LPS, 20 mg/kg

Q: What does the source list for C=C(C)[C@@H]1CCC(C)=C[C@H]1c1c(O)cc(CCCCC)cc1O [CBD, 2-[(1R,6R)-3-methyl-6-(1-methylethenyl)-2-cyclohexen-1-yl]-5-pentyl-1,3-benzenediol]?
A: circulating IL-6 (IL-6): suppress; IL-6 production and secretion [1]: decreased; production of IL-10 [1]: increased; Th17 signature cytokine IL-17 ([1]; dose-dependently): decrease; migration of human neutrophils (human neutrophils): inhibits; apoptosis in microglial cells (microglial cells): induces apoptosis; effective concentration for suppressive effect on IL-6 secretion (IL-6 secretion): ~5 µM; decreased Treg17 levels and increased Th17 levels [2]: reversed these effects; effect on kidney injury [2]: renoprotective; release of pro-inflammatory cytokines (human mononuclear cells): suppressed; numbers of NK cells and NKT cells (NK, NKT, T and B cells; 2.5 mg/kg per day): increased; numbers of NK cells and NKT cells (NK, NKT, T and B cells; 5 mg/kg per day): not affected; number of T cells including T helper cells and cytotoxic T cells and of B cells (NK, NKT, T and B cells; daily 5 mg/kg): significantly reduced; maximum plasma concentration [3]: 14,000 ng/ml; CD83 dendritic cell activation marker (CD83; dendritic cells from healthy individuals): not; CD83 dendritic cell activation marker (CD83; dendritic cells from individuals with HIV infection): suppresses; number of leukocytes including macrophages and neutrophils in the bronchoalveolar lavage fluid ([4]; 20 mg/kg, after LPS-induced lung inflammation): decreases; myeloperoxidase activity [4, 8]: significantly decreased; pro-inflammatory cytokine production including TNF-α and IL-6 [4, 8]: significantly decreased; total leukocytes migration [4, 8]: significantly decreased; vascular permeability [4, 8]: significantly decreased; leukocyte migration (neutrophil, macrophages and lymphocytes) into the lungs [4, 9]: decreased; mechanical lung function [4, 9]: improved; myeloperoxidase activity in the lung tissue [4, 9]: decreased; production of proinflammatory cytokines/chemokines [4, 9]: reduced; vascular permeability [4, 9]: reduced; log P [5]: about 6.1; expression of MDSCs [6]: induces; pro-inflammatory cytokines such as IL-2, TNF-α and IL-6 [6]: reduction; target peak exposure [7]: 2,300 ng/ml

Reference: patent publication US20230201284A1, “Uses and Formulations of Cannabinoids” (priority 2020, published 2023)
